What was measured:
Adenosine receptor A2a = Adenosine receptor A2a (Homo sapiens, UniProt P29274)
[1] = target: T1, Alpha-2A adrenergic receptor (Homo sapiens, UniProt P08913); type: functional, cell-based
T1 sequence (P08913 whole entry): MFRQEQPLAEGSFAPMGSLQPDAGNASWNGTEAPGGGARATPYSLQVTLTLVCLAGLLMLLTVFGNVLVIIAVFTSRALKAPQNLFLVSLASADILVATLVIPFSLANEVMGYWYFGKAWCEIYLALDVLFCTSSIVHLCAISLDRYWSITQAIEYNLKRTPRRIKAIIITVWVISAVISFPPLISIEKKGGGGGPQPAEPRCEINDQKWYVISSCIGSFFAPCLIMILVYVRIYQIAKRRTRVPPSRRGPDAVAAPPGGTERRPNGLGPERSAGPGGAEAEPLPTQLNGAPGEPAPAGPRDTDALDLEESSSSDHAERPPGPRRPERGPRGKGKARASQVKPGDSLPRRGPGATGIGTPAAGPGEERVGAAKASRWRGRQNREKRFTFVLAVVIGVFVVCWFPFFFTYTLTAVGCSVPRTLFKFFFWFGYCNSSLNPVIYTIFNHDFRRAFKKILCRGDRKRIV

[2] = target: T2, Alpha-2C adrenergic receptor (Homo sapiens, UniProt P18825); type: functional
T2 sequence (P18825 whole entry): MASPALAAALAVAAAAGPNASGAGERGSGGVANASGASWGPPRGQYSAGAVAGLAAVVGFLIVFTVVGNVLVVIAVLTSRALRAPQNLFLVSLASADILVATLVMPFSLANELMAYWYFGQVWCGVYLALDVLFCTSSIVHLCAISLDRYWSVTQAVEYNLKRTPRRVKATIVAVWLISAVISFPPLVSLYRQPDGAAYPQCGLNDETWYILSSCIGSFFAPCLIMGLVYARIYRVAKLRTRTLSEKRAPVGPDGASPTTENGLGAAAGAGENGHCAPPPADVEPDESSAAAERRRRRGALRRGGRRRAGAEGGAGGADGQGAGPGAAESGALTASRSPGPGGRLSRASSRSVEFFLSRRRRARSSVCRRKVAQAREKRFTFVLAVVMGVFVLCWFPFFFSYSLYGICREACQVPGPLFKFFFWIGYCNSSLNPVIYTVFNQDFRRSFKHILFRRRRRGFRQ

[3] = target: T3, Type-1 angiotensin II receptor (Homo sapiens, UniProt P30556)
T3 sequence (P30556 whole entry): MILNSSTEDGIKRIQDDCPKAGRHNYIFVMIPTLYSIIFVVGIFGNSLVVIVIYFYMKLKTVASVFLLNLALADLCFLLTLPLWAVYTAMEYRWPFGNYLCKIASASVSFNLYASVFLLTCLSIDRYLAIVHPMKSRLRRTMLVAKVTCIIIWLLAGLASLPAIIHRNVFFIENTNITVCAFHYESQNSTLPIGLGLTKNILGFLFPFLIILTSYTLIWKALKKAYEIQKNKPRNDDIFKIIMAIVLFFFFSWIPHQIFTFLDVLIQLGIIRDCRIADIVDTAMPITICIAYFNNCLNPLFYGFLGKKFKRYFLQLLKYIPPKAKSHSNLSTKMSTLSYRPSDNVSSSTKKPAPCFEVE

[4] = target: Neuronal acetylcholine receptor subunit alpha-4 (Homo sapiens, UniProt P43681)
[5] = target: Gamma-aminobutyric acid receptor subunit alpha-1 (Rattus norvegicus, UniProt P62813); type: functional
[6] = target: 5-hydroxytryptamine receptor 2B (Homo sapiens, UniProt P41595); type: functional, cell-based
[7] = target: T4, 5-hydroxytryptamine receptor 3A (Homo sapiens, UniProt P46098); type: functional
T4 sequence (P46098 whole entry): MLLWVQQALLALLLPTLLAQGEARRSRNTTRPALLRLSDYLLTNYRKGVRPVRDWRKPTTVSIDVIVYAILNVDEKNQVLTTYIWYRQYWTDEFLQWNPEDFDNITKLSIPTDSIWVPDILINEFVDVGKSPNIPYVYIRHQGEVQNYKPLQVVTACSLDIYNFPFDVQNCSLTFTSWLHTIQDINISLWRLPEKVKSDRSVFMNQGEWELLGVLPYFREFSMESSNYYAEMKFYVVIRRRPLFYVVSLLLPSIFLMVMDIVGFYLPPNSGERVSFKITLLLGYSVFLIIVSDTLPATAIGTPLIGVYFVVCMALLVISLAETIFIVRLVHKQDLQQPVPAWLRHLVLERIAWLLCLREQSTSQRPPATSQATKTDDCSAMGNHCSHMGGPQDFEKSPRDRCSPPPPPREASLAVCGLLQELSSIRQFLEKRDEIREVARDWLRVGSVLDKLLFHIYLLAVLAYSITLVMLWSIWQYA

[8] = target: Voltage-gated inwardly rectifying potassium channel KCNH2 (Homo sapiens, UniProt Q12809); type: functional; settings: read-out: AC50
Melanocortin receptor 3 = Melanocortin receptor 3 (Homo sapiens, UniProt P41968)
Motilin receptor = Motilin receptor (Homo sapiens, UniProt O43193)
[9] = target: 3',5'-cyclic-AMP phosphodiesterase 4D (Homo sapiens, UniProt Q08499); type: functional
[10] = target: T5, Equilibrative nucleoside transporter 1 (Homo sapiens, UniProt Q99808)
T5 sequence (Q99808 whole entry): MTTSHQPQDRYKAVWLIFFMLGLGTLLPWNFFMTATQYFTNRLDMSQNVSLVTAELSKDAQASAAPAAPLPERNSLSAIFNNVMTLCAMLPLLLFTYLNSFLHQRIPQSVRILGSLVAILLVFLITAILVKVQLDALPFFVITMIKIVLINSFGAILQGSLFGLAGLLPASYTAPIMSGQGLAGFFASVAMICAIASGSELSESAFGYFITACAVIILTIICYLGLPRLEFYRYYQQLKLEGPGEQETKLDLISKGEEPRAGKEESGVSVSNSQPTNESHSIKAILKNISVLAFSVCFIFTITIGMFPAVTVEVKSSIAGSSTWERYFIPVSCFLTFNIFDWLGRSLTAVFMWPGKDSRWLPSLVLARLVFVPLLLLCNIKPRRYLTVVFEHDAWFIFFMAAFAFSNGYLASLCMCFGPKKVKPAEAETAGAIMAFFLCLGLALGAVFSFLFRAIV

[11] = target: Sodium-dependent noradrenaline transporter (Homo sapiens, UniProt P23975)
[12] = target: cGMP-inhibited 3',5'-cyclic phosphodiesterase 3A (Homo sapiens, UniProt Q14432); type: functional
D(3) dopamine receptor = D(3) dopamine receptor (Homo sapiens, UniProt P35462)
Note: assay procedure not described here.

Chain of Adenosine receptor A2a (P29274 whole entry): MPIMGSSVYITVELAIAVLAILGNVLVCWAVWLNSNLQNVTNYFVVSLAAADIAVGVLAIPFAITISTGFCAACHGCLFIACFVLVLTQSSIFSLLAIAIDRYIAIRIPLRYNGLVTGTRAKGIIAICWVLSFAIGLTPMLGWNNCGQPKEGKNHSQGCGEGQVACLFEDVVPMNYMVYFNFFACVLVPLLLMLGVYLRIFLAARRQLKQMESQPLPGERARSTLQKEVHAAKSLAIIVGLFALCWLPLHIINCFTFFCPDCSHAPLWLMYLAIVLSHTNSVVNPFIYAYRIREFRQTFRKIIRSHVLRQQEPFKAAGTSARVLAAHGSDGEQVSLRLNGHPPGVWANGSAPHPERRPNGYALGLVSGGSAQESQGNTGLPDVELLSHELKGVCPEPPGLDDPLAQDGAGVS
Chain of Gamma-aminobutyric acid receptor subunit alpha-1 (P62813 whole entry): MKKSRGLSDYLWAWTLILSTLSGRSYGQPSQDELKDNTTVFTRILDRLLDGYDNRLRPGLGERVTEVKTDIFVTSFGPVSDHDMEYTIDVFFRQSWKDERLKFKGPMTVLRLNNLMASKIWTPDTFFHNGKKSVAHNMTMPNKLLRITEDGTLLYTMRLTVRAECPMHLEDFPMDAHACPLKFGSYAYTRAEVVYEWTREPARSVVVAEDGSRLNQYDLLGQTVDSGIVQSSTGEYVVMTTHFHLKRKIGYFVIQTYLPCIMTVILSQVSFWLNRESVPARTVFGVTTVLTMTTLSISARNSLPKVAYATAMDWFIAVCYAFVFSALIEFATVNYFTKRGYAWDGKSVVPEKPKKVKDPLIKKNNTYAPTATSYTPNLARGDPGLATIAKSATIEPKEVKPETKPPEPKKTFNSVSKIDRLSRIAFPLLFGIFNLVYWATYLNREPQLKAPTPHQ
Chain of 3',5'-cyclic-AMP phosphodiesterase 4D (Q08499 whole entry): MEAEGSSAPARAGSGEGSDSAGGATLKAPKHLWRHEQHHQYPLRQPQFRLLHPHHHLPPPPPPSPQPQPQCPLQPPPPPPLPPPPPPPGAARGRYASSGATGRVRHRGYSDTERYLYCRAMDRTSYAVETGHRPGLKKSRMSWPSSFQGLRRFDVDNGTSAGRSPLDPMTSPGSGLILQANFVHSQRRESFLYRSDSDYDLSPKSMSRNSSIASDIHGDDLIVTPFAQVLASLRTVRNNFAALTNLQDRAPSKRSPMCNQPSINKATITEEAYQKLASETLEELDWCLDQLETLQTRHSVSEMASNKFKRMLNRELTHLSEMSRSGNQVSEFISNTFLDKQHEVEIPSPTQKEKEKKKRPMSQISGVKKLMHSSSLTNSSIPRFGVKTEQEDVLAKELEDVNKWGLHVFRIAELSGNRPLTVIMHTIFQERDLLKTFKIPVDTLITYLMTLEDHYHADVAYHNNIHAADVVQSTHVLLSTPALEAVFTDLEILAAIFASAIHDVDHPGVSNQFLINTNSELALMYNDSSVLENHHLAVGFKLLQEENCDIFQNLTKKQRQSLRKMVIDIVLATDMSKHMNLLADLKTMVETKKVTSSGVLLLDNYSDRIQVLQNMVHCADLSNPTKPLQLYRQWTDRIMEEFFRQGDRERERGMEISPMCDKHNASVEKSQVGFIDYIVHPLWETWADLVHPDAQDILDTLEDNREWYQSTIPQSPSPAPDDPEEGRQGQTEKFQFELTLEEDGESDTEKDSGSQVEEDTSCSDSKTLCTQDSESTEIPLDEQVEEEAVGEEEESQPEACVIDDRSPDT
Chain of 5-hydroxytryptamine receptor 2B (P41595 whole entry): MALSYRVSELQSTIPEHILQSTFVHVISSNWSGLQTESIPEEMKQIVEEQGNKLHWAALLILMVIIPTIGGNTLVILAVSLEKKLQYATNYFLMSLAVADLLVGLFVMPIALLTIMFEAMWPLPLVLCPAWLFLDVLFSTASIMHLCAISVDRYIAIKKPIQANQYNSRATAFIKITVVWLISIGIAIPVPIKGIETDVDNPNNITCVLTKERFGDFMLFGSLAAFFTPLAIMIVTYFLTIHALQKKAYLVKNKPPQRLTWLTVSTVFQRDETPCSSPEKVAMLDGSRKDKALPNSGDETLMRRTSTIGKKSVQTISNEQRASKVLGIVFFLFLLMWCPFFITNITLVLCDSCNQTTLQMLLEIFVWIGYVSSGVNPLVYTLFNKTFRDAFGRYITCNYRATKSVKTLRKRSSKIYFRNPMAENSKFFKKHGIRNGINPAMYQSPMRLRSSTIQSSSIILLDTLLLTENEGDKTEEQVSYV
Chain of Sodium-dependent noradrenaline transporter (P23975 whole entry): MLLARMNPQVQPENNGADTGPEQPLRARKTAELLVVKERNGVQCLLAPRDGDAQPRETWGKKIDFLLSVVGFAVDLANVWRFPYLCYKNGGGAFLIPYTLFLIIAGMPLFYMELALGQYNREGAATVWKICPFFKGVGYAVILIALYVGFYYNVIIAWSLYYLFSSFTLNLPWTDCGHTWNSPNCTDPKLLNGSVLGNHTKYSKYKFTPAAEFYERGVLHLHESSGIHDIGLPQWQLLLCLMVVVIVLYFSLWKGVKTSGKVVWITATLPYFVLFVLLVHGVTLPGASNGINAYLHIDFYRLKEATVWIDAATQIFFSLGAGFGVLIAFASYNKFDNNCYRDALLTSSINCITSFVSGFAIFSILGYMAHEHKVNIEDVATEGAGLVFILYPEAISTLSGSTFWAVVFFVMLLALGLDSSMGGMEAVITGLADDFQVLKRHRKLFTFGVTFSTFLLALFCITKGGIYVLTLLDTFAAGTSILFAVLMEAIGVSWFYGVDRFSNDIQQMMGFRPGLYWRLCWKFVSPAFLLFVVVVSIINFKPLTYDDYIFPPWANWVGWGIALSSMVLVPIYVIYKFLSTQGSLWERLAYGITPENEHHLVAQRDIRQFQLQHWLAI
Chain of cGMP-inhibited 3',5'-cyclic phosphodiesterase 3A (Q14432 whole entry): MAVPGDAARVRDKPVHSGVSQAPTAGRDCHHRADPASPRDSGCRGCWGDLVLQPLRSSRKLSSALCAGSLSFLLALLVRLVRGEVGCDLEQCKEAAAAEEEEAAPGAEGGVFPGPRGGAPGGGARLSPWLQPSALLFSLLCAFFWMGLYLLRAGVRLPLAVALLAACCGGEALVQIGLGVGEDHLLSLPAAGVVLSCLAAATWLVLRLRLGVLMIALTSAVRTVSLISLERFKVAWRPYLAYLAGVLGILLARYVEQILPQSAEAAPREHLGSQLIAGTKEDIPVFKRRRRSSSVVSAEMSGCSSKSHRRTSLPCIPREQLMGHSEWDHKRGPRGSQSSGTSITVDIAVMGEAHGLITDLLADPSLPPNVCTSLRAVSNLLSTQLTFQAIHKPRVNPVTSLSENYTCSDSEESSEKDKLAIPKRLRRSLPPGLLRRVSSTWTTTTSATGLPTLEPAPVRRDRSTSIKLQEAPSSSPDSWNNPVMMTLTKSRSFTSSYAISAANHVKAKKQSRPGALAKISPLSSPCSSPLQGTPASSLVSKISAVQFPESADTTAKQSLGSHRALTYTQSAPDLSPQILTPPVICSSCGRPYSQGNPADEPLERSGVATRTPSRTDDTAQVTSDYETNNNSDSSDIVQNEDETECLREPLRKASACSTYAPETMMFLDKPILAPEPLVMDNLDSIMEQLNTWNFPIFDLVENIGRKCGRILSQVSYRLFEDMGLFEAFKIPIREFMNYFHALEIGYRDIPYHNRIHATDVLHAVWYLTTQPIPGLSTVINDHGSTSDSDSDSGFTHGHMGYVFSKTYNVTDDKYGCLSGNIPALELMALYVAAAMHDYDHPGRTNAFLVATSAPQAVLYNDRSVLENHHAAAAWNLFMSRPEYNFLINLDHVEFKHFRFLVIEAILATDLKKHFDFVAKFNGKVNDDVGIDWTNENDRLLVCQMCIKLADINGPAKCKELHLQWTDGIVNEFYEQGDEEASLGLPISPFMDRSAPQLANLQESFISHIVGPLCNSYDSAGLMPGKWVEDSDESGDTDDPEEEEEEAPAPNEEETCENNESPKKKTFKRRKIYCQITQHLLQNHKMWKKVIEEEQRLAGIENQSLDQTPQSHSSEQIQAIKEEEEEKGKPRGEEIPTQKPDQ
Chain of Voltage-gated inwardly rectifying potassium channel KCNH2 (Q12809 whole entry): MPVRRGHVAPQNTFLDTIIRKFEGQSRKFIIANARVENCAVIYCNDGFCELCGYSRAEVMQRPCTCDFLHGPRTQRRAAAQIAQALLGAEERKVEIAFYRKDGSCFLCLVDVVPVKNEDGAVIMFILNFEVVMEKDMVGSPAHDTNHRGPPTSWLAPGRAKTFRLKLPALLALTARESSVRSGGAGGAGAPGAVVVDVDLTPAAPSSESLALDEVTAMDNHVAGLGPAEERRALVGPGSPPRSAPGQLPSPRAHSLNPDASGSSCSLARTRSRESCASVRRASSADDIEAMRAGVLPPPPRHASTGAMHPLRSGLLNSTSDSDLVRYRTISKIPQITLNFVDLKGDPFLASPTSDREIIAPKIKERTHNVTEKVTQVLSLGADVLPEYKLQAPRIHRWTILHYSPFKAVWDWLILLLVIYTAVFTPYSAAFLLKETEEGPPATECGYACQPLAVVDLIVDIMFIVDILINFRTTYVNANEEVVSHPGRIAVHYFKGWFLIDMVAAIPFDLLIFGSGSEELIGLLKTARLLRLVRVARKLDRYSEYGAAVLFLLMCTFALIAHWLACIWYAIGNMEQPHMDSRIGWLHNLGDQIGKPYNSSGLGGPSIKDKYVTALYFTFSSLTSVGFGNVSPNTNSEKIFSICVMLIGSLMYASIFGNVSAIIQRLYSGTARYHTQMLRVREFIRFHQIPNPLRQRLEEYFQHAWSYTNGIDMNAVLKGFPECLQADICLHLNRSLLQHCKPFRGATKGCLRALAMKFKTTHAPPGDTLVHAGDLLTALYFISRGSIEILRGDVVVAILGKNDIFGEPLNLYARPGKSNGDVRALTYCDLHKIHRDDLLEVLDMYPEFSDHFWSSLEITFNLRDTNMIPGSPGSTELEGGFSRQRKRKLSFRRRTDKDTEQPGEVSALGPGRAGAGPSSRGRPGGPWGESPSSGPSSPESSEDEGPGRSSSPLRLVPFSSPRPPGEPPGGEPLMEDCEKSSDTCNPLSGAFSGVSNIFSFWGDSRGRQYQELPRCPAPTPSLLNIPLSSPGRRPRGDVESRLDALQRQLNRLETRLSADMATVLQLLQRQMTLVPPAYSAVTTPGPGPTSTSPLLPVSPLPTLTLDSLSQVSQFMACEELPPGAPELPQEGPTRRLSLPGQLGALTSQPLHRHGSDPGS

| Structure (SMILES) | AC50 (Adenosine receptor A2a) [µM] | AC50 [1] [µM] | AC50 [2] [µM] | AC50 [3] [µM] | AC50 [4] [µM] | AC50 [5] [µM] | AC50 [6] [µM] | AC50 [7] [µM] | AC50 [8] [µM] | AC50 (Melanocortin receptor 3) [µM] | AC50 (Motilin receptor) [µM] | AC50 [9] [µM] | AC50 [10] [µM] | AC50 [11] [µM] | AC50 [12] [µM] | AC50 (D(3) dopamine receptor) [µM] |
| --- | --- | --- | --- | --- | --- | --- | --- | --- | --- | --- | --- | --- | --- | --- | --- | --- |
| NC(=O)c1ncn([C@@H]2O[C@H](CO)[C@@H](O)[C@H]2O)c1O [MIZORIBINE] | > 30 | > 30 | > 30 | > 30 | > 30 | > 10 | > 30 | > 30 | > 30 | > 30 | > 30 | > 30 | > 30 | > 30 | > 30 | > 30 |
| OCCN1CCN(CCCN2c3ccccc3C=Cc3ccccc32)CC1 [OPIPRAMOL] | > 30 | > 30 | 6.7 | > 30 | > 30 | > 30 | > 30 | > 30 | 14 | > 30 | > 30 | > 30 | > 30 | > 30 | > 30 | 1.32 |
| NC1=NC(=O)C(c2ccccc2)O1 (stereo not drawn) [PEMOLINE] | > 30 | > 10 | > 10 | > 30 | > 10 | > 10 | > 10 | > 30 | > 30 | > 30 | > 10 | > 30 | > 30 | > 30 | > 30 | > 30 |
| CC(C(=O)O)c1ccc(N2CC=CC2)c(Cl)c1 (stereo not drawn) [PIRPROFEN] | > 30 | > 10 | > 10 | > 30 | > 10 | > 10 | > 10 | > 30 | > 30 | > 30 | > 10 | > 30 | > 30 | > 10 | > 30 | > 10 |
| CC[C@H](C)C(=O)O[C@H]1C[C@H](O)C=C2C=C[C@H](C)[C@H](CC[C@@H](O)C[C@@H](O)CC(=O)O)[C@H]21 [PRAVASTATIN] | > 30 | > 30 | > 30 | > 30 | > 30 | > 30 | > 30 | > 30 | > 30 | > 30 | > 30 | > 30 | > 30 | > 30 | > 30 | > 30 |
| NC(=O)c1cnccn1 [PYRAZINAMIDE] | > 30 | > 30 | > 30 | > 30 | > 30 | > 30 | > 30 | > 30 | > 30 | 12.6 | > 30 | > 30 | > 30 | > 30 | > 30 | > 30 |
| CC(C(=O)O)c1ccc(C(=O)c2cccs2)cc1 (stereo not drawn) [SUPROFEN] | > 10 | > 10 | > 10 | > 10 | > 10 | > 10 | > 10 | > 30 | > 30 | > 10 | > 10 | > 30 | > 10 | > 10 | > 30 | > 30 |
| CS(=O)(=O)c1ccc([C@@H](O)[C@@H](CO)NC(=O)C(Cl)Cl)cc1 [THIAMPHENICOL] | > 30 | > 30 | > 30 | > 30 | > 30 | > 30 | > 30 | > 30 | > 30 | > 30 | > 30 | > 30 | > 30 | > 30 | > 30 | > 30 |
